Source: US10106556B2, “Heterocyclic compound” (TAKEDA PHARMACEUTICAL COMPANY LIMITED, priority 2015, dated 2018)

These molecules were tested against T1, His-hMAGL (recombinant polyhistidine tagged human MAGL protein) (Homo sapiens, UniProt Q99685) (assay: Measurement of MAGL inhibitory activity (arachidonic acid production from 2-arachidonylglycerol, RapidFire-mass spectrometry)). Settings: MAGL inhibitory rate at 10 μM test compound; 60 min preincubation with His-hMAGL, 2-arachidonylglycerol substrate, 10 min reaction at room temperature.
T1 construct: made in house; host or cells: E. coli BL21(DE3)
T1 sequence (Q99685 1-303): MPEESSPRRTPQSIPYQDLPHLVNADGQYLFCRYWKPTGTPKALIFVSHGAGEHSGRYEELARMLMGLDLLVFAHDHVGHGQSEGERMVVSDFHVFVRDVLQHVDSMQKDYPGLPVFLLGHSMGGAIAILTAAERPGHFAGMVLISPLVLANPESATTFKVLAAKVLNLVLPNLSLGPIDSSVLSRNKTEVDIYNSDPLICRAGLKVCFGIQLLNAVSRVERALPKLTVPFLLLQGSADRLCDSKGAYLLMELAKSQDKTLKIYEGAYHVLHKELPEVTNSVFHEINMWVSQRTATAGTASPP
Assay type: biochemical
Protocol: Furthermore, acetonitrile (50 μL) containing 3 μM arachidonic acid-d8 (Cayman Chemical Company) was added and the mixture was stirred.
The amount of arachidonic acid in the obtained enzyme reaction mixture was calculated by measuring by RapidFire-mass spectrometry and correcting by the amount of arachidonic acid-d8. High Throughput online solid phase extraction was performed using RapidFire 300™ system (Agilent Technologies, Inc.). Samples were loaded on SPE C4 cartridge (Agilent Technologies, Inc.) and desalted with 0.2 (v/v) % acetic acid (Wako Pure Chemical Industries, Ltd.) in ultrapure water/acetonitrile (70/30, v/v) at a flow rate of 1.5 mL/min, eluted at a flow rate of 0.5 mL/min with 0.2 (v/v) % acetic acid dissolved in acetonitrile/ultrapure water (90/10, v/v), and injected into the mass spectrometry part. The injection needle was washed with ultrapure water (500 millisecond) and acetonitrile (500 millisecond) to minimize carry-over. […] The RapidFire300 system was controlled by RapidFire UI software version 3.6 (Agilent Technologies, Inc.).
The mass spectrometry of the resultant product was performed using API4000™ triple quadrupole mass spectrometer (AB SCIEX) equipped with an electrospray ion sauce (TurboIon Spray™) in a negative selected reaction monitoring (SRM) mode. The conditions of SRM are shown below. The parameters of the instrument were optimized as follows: capillary temperature 600° C., ion spray voltage −4.5 kV, collision gas 8, curtain gas 15 psi, ion source gas 1 60 psi, ion source gas 2 60 psi. The mass spectrometer was controlled by Analyst™ software version 1.5.1 (AB SCIEX). The peak area integration was analyzed using RapidFire integrator software version 3.6 (Agilent Technologies, Inc.).
MAGL inhibitory rate (%) was calculated according to the following calculation formula. (1−(arachidonic acid production amount of test compound addition group−arachidonic acid production amount of enzyme−free group)÷(arachidonic acid production amount of test compound-free group−arachidonic acid production amount of enzyme-free group))×100
Work on `O=C1COc2ncc(C(=O)N3CCC(COc4ccc(Cl)cc4)CC3)cc2N1` [Example 6, 7-((4-((4-chlorophenoxy)methyl)piperidin-1-yl)carbonyl)-1H-pyrido[2,3-b][1,4]oxazin-2(3H)-one] yielded an inhibition at 10 µM of 98%.
With `O=C1COc2ncc(C(=O)N3CCC(COc4ccccc4Cl)CC3)cc2N1` [Example 7, 7-((4-((2-chlorophenoxy)methyl)piperidin-1-yl)carbonyl)-1H-pyrido[2,3-b][1,4]oxazin-2(3H)-one] the inhibition at 10 µM was 100%.
`O=C1COc2ccc(C(=O)N3CCC(COc4ccccc4)CC3)cc2N1` [Example 12, 6-((4-(phenoxymethyl)piperidin-1-yl)carbonyl)-2H-1,4-benzoxazin-3(4H)-one] showed an inhibition at 10 µM of 99%.
`O=C1COc2ncc(C(=O)N3CCC(COc4cccc(Cl)c4)CC3)cc2N1` [Example 13, 7-((4-((3-chlorophenoxy)methyl)piperidin-1-yl)carbonyl)-1H-pyrido[2,3-b][1,4]oxazin-2(3H)-one] was tested, and the inhibition at 10 µM was 99%.
With `O=C1COc2ncc(C(=O)N3CC(COCc4ccccc4)C3)cc2N1` [Example 14, 7-((3-((benzyloxy)methyl)azetidin-1-yl)carbonyl)-1H-pyrido[2.3-b][1,4]oxazin-2(3H)-one] the inhibition at 10 µM was 80%.
`O=C1COc2ncc(C(=O)N3CCC(COc4ccc(Cl)cc4Cl)CC3)cc2N1` [Example 17, 7-((4-((2,4-dichlorophenoxy)methyl)piperidin-1-yl)carbonyl)-1H-pyrido[2,3-b][1,4]oxazin-2 (3H)-one] showed an inhibition at 10 µM of 101%.
`O=C1COc2ncc(C(=O)N3CCC(COc4cc(Cl)ccc4Cl)CC3)cc2N1` [Example 18, 7-((4-((2,5-dichlorophenoxy)methyl)piperidin-1-yl)carbonyl)-1H-pyrido[2,3-b][1,4]oxazin-2(3H)-one] showed an inhibition at 10 µM of 100%.
Molecule `O=C1COc2ncc(C(=O)N3CCC(COc4ccccc4C(F)(F)F)CC3)cc2N1` [Example 19, 7-((4-((2-(trifluoromethyl)phenoxy)methyl)piperidin-1-yl)carbonyl)-1H-pyrido [2,3-b][1,4]oxazin-2(3H)-one] has an inhibition at 10 µM of 100%.
`O=C1COc2ncc(C(=O)N3CCC(COc4cc(F)ccc4Cl)CC3)cc2N1` [Example 21, 7-((4-((2-chloro-5-fluorophenoxy)methyl)piperidin-1-yl)carbonyl)-1H-pyrido[2,3-b][1,4]oxazin-2(3H)-one] gave an inhibition at 10 µM of 99%.
Work on `O=C1COc2ncc(C(=O)N3CCC(COc4c(F)cccc4Cl)CC3)cc2N1` [Example 22, 7-((4-((2-chloro-6-fluorophenoxy)methyl)piperidin-1-yl)carbonyl)-1H-pyrido[2,3-b][1,4]oxazin-2(3H)-one] yielded an inhibition at 10 µM of 95%.
Work on `O=C1COc2ccc(C(=O)N3CCC(COc4ccc(Cl)cc4Cl)CC3)cc2N1` [Example 23, 6-((4-((2,4-dichlorophenoxy)methyl)piperidin-1-yl)carbonyl)-2H-1,4-benzoxazin-3(4H)-one] yielded an inhibition at 10 µM of 100%.
`O=C1COc2ccc(C(=O)N3CCC(COc4ccccc4Cl)CC3)cc2N1` [Example 24, 6-((4-((2-chlorophenoxy)methyl)piperidin-1-yl)carbonyl)-2H-1,4-benzoxazin-3 (4H)-one] was tested, and the inhibition at 10 µM was 101%.
For `O=C1COc2ncc(C(=O)N3CCC(COc4cccc(Cl)c4Cl)CC3)cc2N1` [Example 25, 7-((4-((2,3-dichlorophenoxy)methyl)piperidin-1-yl)carbonyl)-1H-pyrido[2,3-b][1,4]oxazin-2(3H)-one], the inhibition at 10 µM was 100%.
Work on `O=C1COc2ccc(C(=O)N3CCC(COc4ccc(F)cc4Cl)CC3)cc2N1` [Example 26, 6-((4-((2-chloro-4-fluorophenoxy)methyl)piperidin-1-yl)carbonyl)-2H-1,4-benzoxazin-3 (4H)-one] yielded an inhibition at 10 µM of 101%.
`O=C1COc2ccc(C(=O)N3CCC(F)(COc4ccc(F)cc4Cl)CC3)cc2N1` [Example 27, 6-((4-((2-chloro-4-fluorophenoxy)methyl)-4-fluoropiperidin-1-yl)carbonyl)-2H-1,4-benzoxazin-3(4H)-one] gave an inhibition at 10 µM of 101%.
Molecule `O=C1Cc2ccc(C(=O)N3CCC(COc4ccccc4Cl)CC3)cc2N1` [Example 28] has an inhibition at 10 µM of 100%.
`O=C(c1ccc2oc(=O)[nH]c2c1)N1CCC(COc2ccccc2Cl)CC1` [Example 29, 5-((4-((2-chlorophenoxy)methyl)piperidin-1-yl)carbonyl)-1,3-benzoxazol-2(3H)-one] showed an inhibition at 10 µM of 96%.
Molecule `N#Cc1ccccc1OCC1CCN(C(=O)c2ccc3c(c2)NC(=O)CO3)CC1` [Example 30, 2-((1-((3-oxo-3,4-dihydro-2H-1,4-benzoxazin-6-yl)carbonyl)piperidin-4-yl)methoxy)benzonitriie] has an inhibition at 10 µM of 98%.
With `O=C1COc2ccc(C(=O)N3CCC(COc4cc(F)ccc4Cl)CC3)cc2N1` [Example 31, 6-((4-((2-chloro-5-fluorophenoxy)methyl)piperidin-1-yl)carbonyl)-2H-1,4-benzoxazin-3(4H)-one] the inhibition at 10 µM was 97%.
For `O=C1COc2c(F)cc(C(=O)N3CCC(COc4ccc(F)cc4Cl)CC3)cc2N1` [Example 32, 6-((4-((2-chloro-4-fluorophenoxy)methyl)piperidin-1-yl)carbonyl)-8-fluoro-2H-1,4-benzoxazin-3(4H)-one], the inhibition at 10 µM was 99%.
`N#Cc1cc(Cl)ccc1OCC1CCN(C(=O)c2ccc3c(c2)NC(=O)CO3)CC1` [Example 33, 5-chloro-2-((1-((3-oxo-3,4-dihydro-2H-1,4-benzoxazin-6-yl)carbonyl)piperidin-4-yl)methoxy)benzonitrile] was tested, and the inhibition at 10 µM was 99%.
Work on `Cc1ccccc1OCC1CCN(C(=O)c2ccc3c(c2)NC(=O)CO3)CC1` [Example 34, 6-((4-((2-methylphenoxy)methyl)piperidin-1-yl)carbonyl)-2H-1,4-benzoxazin-3(4H)-one] yielded an inhibition at 10 µM of 98%.
Work on `Cc1ccc(OCC2CCN(C(=O)c3ccc4c(c3)NC(=O)CO4)CC2)c(C)c1` [Example 35, 6-((4-((2,4-dimethylphenoxy)methyl)piperidin-1-yl)carbonyl)-2H-1,4-benzoxazin-3(4H)-one] yielded an inhibition at 10 µM of 98%.
In the case of `Cc1ccc(OCC2CCN(C(=O)c3ccc4c(c3)NC(=O)CO4)CC2)c(Cl)c1` [Example 36, 6-((4-((2-chloro-4-methylphenoxy)methyl)piperdin-1-yl)carbonyl)-2H-1,4-benzoxazin-3(4H)-one], the inhibition at 10 µM is reported as 104%.
With `Cc1cc(Cl)ccc1OCC1CCN(C(=O)c2ccc3c(c2)NC(=O)CO3)CC1` [Example 37, 6-((4-((4-chloro-2-methylphenoxy)methyl)piperidin-1-yl)carbonyl)-2H-1,4-benzoxazin-3(4H)-one] the inhibition at 10 µM was 101%.
For `Cc1ccc(OCC2CCN(C(=O)c3ccc4c(c3)NC(=O)CO4)CC2)c(C)n1` [Example 38, 6-((4-(((2,6-dimethylpyridin-3-yl)oxy)methyl)piperidin-1-yl)carbonyl)-2H-1,4-benzoxazin-3(4H)-one], the inhibition at 10 µM was 84%.
Molecule `Cc1cc(C)c(OCC2CCN(C(=O)c3ccc4c(c3)NC(=O)CO4)CC2)cn1` [Example 39] has an inhibition at 10 µM of 100%.
`Cc1ccc(OCC2CCN(C(=O)c3ccc4c(c3)NC(=O)CO4)CC2)c(Cl)n1` [Example 40, 6-((4-(((2-chloro-6-methylpyridin-3-yl)oxy)methyl)piperidin-1-yl)carbonyl)-2H-1,4-benzoxazin-3(4H)-one] was tested, and the inhibition at 10 µM was 95%.
`O=C1COc2ccc(C(=O)N3CCC(COc4ccc(Cl)nc4Cl)CC3)cc2N1` [Example 41, 6-((4-(((2,6-dichloropyridin-3-yl)oxy)methyl)piperidin-1-yl)carbonyl)-2H-1,4-benzoxazin-3(4H)-one] gave an inhibition at 10 µM of 103%.
`O=C1COc2ccc(C(=O)N3CCC(COc4ccc(Cl)c(F)c4)CC3)cc2N1` [Example 42, 6-((4-((4-chloro-3-fluorophenoxy)methyl)piperidin-1-yl)carbonyl)-2H-1,4-benzoxazin-3(4H)-one] showed an inhibition at 10 µM of 99%.
`O=C1COc2ccc(C(=O)N3CCC(COc4ccc(Cl)c(Cl)c4)CC3)cc2N1` [Example 43, 6-((4-((3,4-dichlorophenoxy)methyl)piperidin-1-yl)carbonyl)-2H-1,4-benzoxazin-3(4H)-one] showed an inhibition at 10 µM of 100%.
For `O=C1COc2ccc(C(=O)N3CCC(COc4ccc(Cl)nc4)CC3)cc2N1` [Example 44, 6-((4-(((6-chloropyridin-3-yl)oxy)methyl)piperidin-1-yl)carbonyl)-2H-1,4-benzoxazin-3(4H)-one], the inhibition at 10 µM was 90%.
